Assay results taken from US20240139235A1, “IRON(III) FORMULATIONS FOR THE TREATMENT OF GASTROINTESTINAL INFLAMMATION” (PHARMANUTRA S.P.A., priority 2021, published 2024).

What was measured:
Assay type in all cases: in vivo
[1] = Iron status and haematological parameters of mice fed iron diets; conditions: C57BL/6 male mice, diet 50 mg/kg iron for two weeks
Description: (§1) Thirty C57BL/6 male mice at four weeks of age were subjected to an iron deficient diet (based on the AIN-93G rodent diet, ˜1 mg kg of iron). All mice were bred in the same environment (QIMR Berghofer Animal Facility) to minimise the inherent variability in the microbiome between individual mice.
(§2) After faecal collection at six weeks of age, mice were switched from an iron deficient diet to a diet containing 50 mg/kg of iron such as ferrous sulfate (iron (II) sulfate) or Sucrosomial® iron (ten mice per group).
Faecal samples were then collected from each mouse at eight weeks of age (i.e. two weeks with diets containing iron), the mice sacrificed and the tissues collected for analysis. Liver and serum samples were collected from each animal after euthanasia and stored at −80° C. Haematological parameters were evaluated immediately after euthanasia using a “Coulter Ac-T diff Hematology Analyzer” (Beckman Coulter, Gladesville, NSW, Australia). […] For the analysis of iron and haematological parameters, the statistical differences between the groups were calculated using the unidirectional ANOVA followed by the Tukey post-hoc test for the groups with equal variance or by the Games-Howell post-hoc test for those with unequal variance. Significant differences in variance were identified using the Levene test. DNA was extracted from the faecal samples and the microbial profile (QIMR Berghofer Medical Research Institute) was determined.
• ID: control group, maintained on iron deficient diet (about 1 mg/kg iron). • FS: group fed with diet containing 50 mg/kg of iron in the form of ferrous sulfate (FS abbreviation for ferrous sulfate)—Fe(II). • SI: group fed with diet containing 50 mg/kg of iron in the form of Sucrosomial® iron (SI abbreviation for sucrosomial iron)—Fe(III).
After being sacrificed at the age of eight weeks, iron levels in the liver and in the serum, as well as the haematological parameters of mice of the three groups under analysis (ID, FS and SI) were examined.

gut microbiome of mice = test: Faecal microbiome diversity (beta and alpha diversity) in mice; conditions: faecal samples, two weeks on diet 50 mg/kg iron
Description: as §1
(§3) At six weeks of age (i.e. two weeks with an iron deficient diet), faeces were collected for microbiome analysis. This was the control sample for each mouse and it represents the basic microbiome of that particular animal when the lumen is iron deficient. […]
Faecal samples were then collected from each mouse at eight weeks of age (i.e. two weeks with diets containing iron), the mice sacrificed and the tissues collected for analysis. […] Haematological parameters were evaluated immediately after euthanasia using a “Coulter Ac-T diff Hematology Analyzer” (Beckman Coulter, Gladesville, NSW, Australia). Serum iron parameters, analysed using the Iron/TIBC Reagent Kit (Pointe Scientific, Canton, MI), and iron levels in tissues were determined as described above [Frazer, D. M., et al. Cell Mol Gastroenterol Hepatol 3, 410-421 (2017)]. […] DNA was extracted from the faecal samples and the microbial profile (QIMR Berghofer Medical Research Institute) was determined.

[2] = test system: Lachnospiraceae spp, Rikenellaceae RC9, Faecalibaculum, Colidextribacter, Oscillibacter, Parasutterella, Lactobacillus; test: Faecal microbiome changes at Amplicon Single Variant (ASV)/genus level; conditions: faecal samples, mice, two weeks on diet 50 mg/kg iron vs baseline (FIG. 6G)
Description: as §1, §3
(§4) Faecal samples were then collected from each mouse at eight weeks of age (i.e. two weeks with diets containing iron), the mice sacrificed and the tissues collected for analysis. […] Haematological parameters were evaluated immediately after euthanasia using a “Coulter Ac-T diff Hematology Analyzer” (Beckman Coulter, Gladesville, NSW, Australia). Serum iron parameters, analysed using the Iron/TIBC Reagent Kit (Pointe Scientific, Canton, MI), and iron levels in tissues were determined as described above [Frazer, D. M., et al. Cell Mol Gastroenterol Hepatol 3, 410-421 (2017)]. […] DNA was extracted from the faecal samples and the microbial profile (QIMR Berghofer Medical Research Institute) was determined. […]

Bacteroidota = test: Faecal microbiome changes at phylum level: Bacteroidota; conditions: faecal samples, mice, two weeks on diet 50 mg/kg iron vs baseline (FIG. 5)
Description: as §1, §3, §4

[3] = Body weight of mice on iron diets; conditions: C57BL/6 male mice, diet 50 mg/kg iron for two weeks; comparison of ID, FS and SI groups (FIG. 1A)
Description: as §1, §2
The remaining ten mice were a control group that remained on the deficient diet.
Faecal samples were then collected from each mouse at eight weeks of age (i.e. two weeks with diets containing iron), the mice sacrificed and the tissues collected for analysis. Liver and serum samples were collected from each animal after euthanasia and stored at −80° C. Haematological parameters were evaluated immediately after euthanasia using a “Coulter Ac-T diff Hematology Analyzer” (Beckman Coulter, Gladesville, NSW, Australia). Serum iron parameters, analysed using the Iron/TIBC Reagent Kit (Pointe Scientific, Canton, MI), and iron levels in tissues were determined as described above [Frazer, D. M., et al. Cell Mol Gastroenterol Hepatol 3, 410-421 (2017)]. […] DNA was extracted from the faecal samples and the microbial profile (QIMR Berghofer Medical Research Institute) was determined. […]

ferrous sulfate
iron concentration in the liver ([1]; Sucrosomial iron vs ferrous sulfate (FIG. 1B)): no significant differences | serum iron levels ([1]; Sucrosomial iron vs ferrous sulfate (FIG. 1C)): no significant differences | transferrin saturation ([1]; Sucrosomial iron vs ferrous sulfate (FIG. 1D)): no significant differences | red blood cell count ([1]; Sucrosomial iron vs ferrous sulfate (FIG. 2A)): no significant differences | haemoglobin ([1]; Sucrosomial iron vs ferrous sulfate (FIG. 2B)): no significant differences | haematocrit ([1]; Sucrosomial iron vs ferrous sulfate (FIG. 2C)): no significant differences | mean corpuscular volume ([1]; Sucrosomial iron vs ferrous sulfate (FIG. 2D)): no significant differences | Shannon index (alpha diversity) per group (gut microbiome of mice; unpaired comparison of groups (FIG. 4A)): lower | beta diversity (overall microbial composition, PCoA) (gut microbiome of mice; vs iron deficient diet (FIG. 3)): able to be distinguished from samples taken from mice on iron-deficient diets | Lactobacillus at the genus level, change vs baseline [2]: no similar decrease | abundance of phylum Bacteroidota, change vs baseline (Bacteroidota): significantly reduced | body weight [3]: no significant differences
